Data as given in PMC10082216 (Nature Communications, 2023).
Like-named read-outs stand apart in the source and are kept apart here.

Columns and labels:
[1] = system: synchronized ring-stage P. falciparum 3D7-pULG8-GFP; assay: Dose-response analysis on asexual parasites, 3D7; format: cell-based; conditions: Plasmodium falciparum
Description: (§1) Plasmodium falciparum 3D7-pULG8-GFP or NF54 strains were synchronized by sorbitol lysis. Rings were then diluted to 0.5% parasitemia and loaded into an empty 96-well plate (200 µL/well). First, well volume was doubled and compound was added to obtain 20 µM (TD-6450) and 500 nM (NITD609) final concentrations. The ring suspension was then manually serially diluted 1/2 for 12 points, obtaining 9.77 nM (TD-6450) and 0.24 nM (NITD609) as lowest concentrations. The same operation was done with DMSO to have a negative control. After 48 hours of incubation, the plates were centrifugated and RBC pellets were incubated for 30 min with Sybr-G (1/1000 diluted in PBS, Thermo Fisher cat. no. S7567). After PBS washing (2x), pellets were resuspended in 200 µL of PBS and parasitemia was quantified by FACSCanto and analyzed with FlowJo V12. IC50s were determined using GraphPad Prism 5.1 as mentioned. Images from optical microscopy were taken using a Leica inverted microscope and analyzed with Las X software.

[2] = system: synchronized ring-stage P. falciparum NF54; assay: Dose-response analysis on asexual parasites, NF54; format: cell-based, Plasmodium falciparum; conditions: for Parasitemia 1 / Parasitemia 2 / Parasitemia 3: NF54 ring stage; for IC50: Plasmodium falciparum, NF54, 48 h
Description: as §1

[3] = system: mature stage V gametocytes (NF54 strain); assay: High-throughput screening: killing effect by MitoTracker staining, primary screening at 1.11 µM and dose-response analysis; format: cell-based, Plasmodium falciparum; parameters: Killing 1 / Killing 2: unit not given here
Summary of the method: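 NF54 stage V gametocytes (day 17, density-purified, 0.5% hematocrit) exposed 24 h to compounds at 1.11 µM (primary) or in dose-response. Killing scored by MitoTracker staining; gametocytemia by Sybr Green/CellMask staining, with microsphiltration for stiffening. DMSO 0.05% negative control.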

[4] = 3D7, 48 h, read-out: IC50, 3D7 strain (Fig. 5B)

Row | SMILES | IC50 [1, 4] | Killing 1 ([3]; Concentration (µM) 0.00457) | Killing 2 ([3]; Concentration (µM) 0.00457) | Killing 1 ([3]; Concentration (µM) 0.01372) | Killing 2 ([3]; Concentration (µM) 0.01372) | Killing 1 ([3]; Concentration (µM) 0.04115) | Killing 2 ([3]; Concentration (µM) 0.04115) | Killing 1 ([3]; Concentration (µM) 0.12346) | Killing 2 ([3]; Concentration (µM) 0.12346) | Killing 1 ([3]; Concentration (µM) 0.37037) | Killing 2 ([3]; Concentration (µM) 0.37037) | Killing 1 ([3]; Concentration (µM) 1.11111) | Killing 2 ([3]; Concentration (µM) 1.11111) | Killing 1 ([3]; Concentration (µM) 3.33333) | Killing 2 ([3]; Concentration (µM) 3.33333) | Killing 1 ([3]; Concentration (µM) 10) | Killing 2 ([3]; Concentration (µM) 10) | other results
1 | CNC(=O)N1C[C@@H](C)N(c2ccc(C(=O)Nc3ccc(-c4ccc(-c5c[nH]c([C@@H]6CCCN6C(=O)[C@@H](NC(=O)OC)C(C)C)n5)cc4)c(OC(F)(F)F)c3)cn2)C[C@@H]1C [TD-6450] | 730 nM | 11.2808 | -14.2963 | 2.341 | 5.18 | 2.7905 | -6.465 | 6.495 | 2.622 | 21.5808 | 10.8967 | 13.8006 | -5.531 | 21.7528 | 15.2641 | 38.4381 | 9.163 | IC50 ([1]; 3D7, 2 experiments, 48 h, read-out: IC50 on asexual parasites, 3D7): 875 ± 205 nM; Parasitemia 1 ([2]; 10 µM): 0.14; Parasitemia 2 ([2]; 10 µM): 0.17; Parasitemia 3 ([2]; 10 µM): 0.23; Parasitemia 1 ([2]; 20 µM): 0.2; Parasitemia 2 ([2]; 20 µM): 0.18; Parasitemia 3 ([2]; 20 µM): 0.2; IC50 ([2]; 2 experiments, read-out: IC50 on asexual parasites, NF54): 1330 ± 230 nM; IC50 ([2]; ring stage, blue curves, read-out: IC50, NF54 strain (Fig. 5B)): 1170 nM
2 | COc1cc2c(cc1OC)[C@@H]1Cc3ccc(OC)c(OC)c3CN1CC2 [(S)-(-)-Tetrahydropalmatine] |  | -2.5151 | 13.1152 | -0.7507 | 16.6892 | -11.759 | -1.725 | -2.104 | -3.416 | -7.032 | 6.932 |  | -20.6174 |  | 1.7558 |  | -10.2887 | 
3 | C[C@H]1Cc2c([nH]c3cc(Cl)c(F)cc23)[C@@]2(N1)C(=O)Nc1ccc(Cl)cc12 [NITD609, cipargamin] | 1.25 nM | -6.197 | 1.637 | 7.015 | 11.7246 | 2.936 | 8.401 | 38.3591 | 39.938 | 69.6281 | 81.8548 | 86.7644 | 86.5546 | 82.0471 | 89.8018 | 93.1364 | 89.7094 | IC50 ([2]; ring stage, red curves, read-out: IC50, NF54 strain (Fig. 5B)): 1.8 nM; Killing IC10 ([3]; Fig. 3 dose-response): 50 nM; IC50 ([3]; Plasmodium falciparum, NF54, 24 h, stage V gametocytes NF54, 24 h, dose-response analysis, N/A = not active in dose-response analysis, read-out: Killing IC50): 150 nM; IC90 ([3]; Plasmodium falciparum, NF54, Fig. 3 dose-response): 500 nM
